Measurements reported in ChEMBL document CHEMBL3045268, “Synthesis, anticancer, and molecular docking studies of pyranone derivatives” (Med Chem Res, 2013).

How the values were obtained:
Mus musculus [1] = assay: Toxicity in Mus musculus (mouse) transplanted with mouse EAC cells assessed as increase in hemoglobin level at 75 mg/kg, ip measured on day 13 post tumor implantation (reference value: 7.5 +/- 0.01 g%); assay type: organism-based, Ehrlich; set-up: dose 75 mg/kg, route intraperitoneal; conditions: in vivo
Mus musculus [2] = assay: Toxicity in Mus musculus (mouse) transplanted with mouse EAC cells assessed as effect on WBC level measured per 10^3 cells at 75 mg/kg, ip on day 13 post tumor implantation (reference value: 19.49 +/- 0.26 mm3); assay type: organism-based, Ehrlich; set-up: dose 75 mg/kg, route intraperitoneal; conditions: in vivo
Mus musculus [3] = assay: Toxicity in Mus musculus (mouse) transplanted with mouse EAC cells assessed as effect on monocytes level at 75 mg/kg, ip measured on day 13 post tumor implantation (reference value: 1.4 +/- 0.24%); assay type: organism-based, Ehrlich; set-up: dose 75 mg/kg, route intraperitoneal; conditions: in vivo
[4] = Antitumor activity against Mus musculus (mouse) EAC cells transplanted in mouse assessed as increase in life span at 75 mg/kg, ip relative to vehicle-treated control; assay type: functional, Ehrlich; conditions: route intraperitoneal
[5] = Antitumor activity against Mus musculus (mouse) EAC cells transplanted in mouse assessed as decrease in body weight at 75 mg/kg, ip measured up to 11 days relative to vehicle-treated control; assay type: functional, Ehrlich; set-up: scale not given: the % may be the effect or the level left; conditions: route intraperitoneal
Mus musculus [6] = assay: Toxicity in Mus musculus (mouse) transplanted with mouse EAC cells assessed as effect on RBC level at 75 mg/kg, ip measured on day 13 post tumor implantation (reference value: 3.95 +/- 0.32 million/mm3); assay type: organism-based, Ehrlich; set-up: dose 75 mg/kg, route intraperitoneal; conditions: in vivo
Mus musculus [7] = assay: Toxicity in Mus musculus (mouse) transplanted with mouse EAC cells assessed as effect on neutrophils level at 75 mg/kg, ip measured on day 13 post tumor implantation (reference value: 60.4 +/- 1.5%); assay type: organism-based, Ehrlich; set-up: dose 75 mg/kg, route intraperitoneal; conditions: in vivo
Mus musculus [8] = assay: Toxicity in Mus musculus (mouse) transplanted with mouse EAC cells assessed as effect on lymphocytes level at 75 mg/kg, ip measured on day 13 post tumor implantation (reference value: 35.8 +/- 1.15%); assay type: organism-based, Ehrlich; set-up: dose 75 mg/kg, route intraperitoneal; conditions: in vivo
Mus musculus [9] = assay: Toxicity in Mus musculus (mouse) transplanted with mouse EAC cells assessed as effect on RBC level at 20 mg/kg, ip measured on day 13 post tumor implantation (reference value: 3.95 +/- 0.32 million/mm3); assay type: organism-based, Ehrlich; set-up: dose 20 mg/kg, route intraperitoneal; conditions: in vivo
Mus musculus [10] = assay: Toxicity in Mus musculus (mouse) transplanted with mouse EAC cells assessed as effect on neutrophils level at 20 mg/kg, ip measured on day 13 post tumor implantation (reference value: 60.4 +/- 1.5%); assay type: organism-based, Ehrlich; set-up: dose 20 mg/kg, route intraperitoneal; conditions: in vivo
Mus musculus [11] = assay: Toxicity in Mus musculus (mouse) transplanted with mouse EAC cells assessed as effect on WBC level measured per 10^3 cells at 20 mg/kg, ip on day 13 post tumor implantation (reference value: 19.49 +/- 0.26 mm3); assay type: organism-based, Ehrlich; set-up: dose 20 mg/kg, route intraperitoneal; conditions: in vivo
Mus musculus [12] = assay: Toxicity in Mus musculus (mouse) transplanted with mouse EAC cells assessed as increase in hemoglobin level at 20 mg/kg, ip measured on day 13 post tumor implantation (reference value: 7.5 +/- 0.01 g%); assay type: organism-based, Ehrlich; set-up: dose 20 mg/kg, route intraperitoneal; conditions: in vivo
[13] = Antitumor activity against Mus musculus (mouse) EAC cells transplanted in mouse assessed as increase in life span at 20 mg/kg, ip relative to vehicle-treated control; assay type: functional, Ehrlich; conditions: route intraperitoneal
Mus musculus [14] = assay: Toxicity in Mus musculus (mouse) transplanted with mouse EAC cells assessed as effect on lymphocytes level at 20 mg/kg, ip measured on day 13 post tumor implantation (reference value: 35.8 +/- 1.15%); assay type: organism-based, Ehrlich; set-up: dose 20 mg/kg, route intraperitoneal; conditions: in vivo
Mus musculus [15] = assay: Toxicity in Mus musculus (mouse) transplanted with mouse EAC cells assessed as effect on monocytes level at 20 mg/kg, ip measured on day 13 post tumor implantation (reference value: 1.4 +/- 0.24%); assay type: organism-based, Ehrlich; set-up: dose 20 mg/kg, route intraperitoneal; conditions: in vivo

Structure (SMILES)	Activity (Mus musculus [1]) [g%]	Activity (Mus musculus [2])	Activity (Mus musculus [3]) [%]	Activity [4] [%]	Activity [5] [%]	Activity (Mus musculus [6]) [million/mm3]	Activity (Mus musculus [7]) [%]	Activity (Mus musculus [8]) [%]	Activity (Mus musculus [9]) [million/mm3]	Activity (Mus musculus [10]) [%]	Activity (Mus musculus [11]) [mm3]	Activity (Mus musculus [12]) [g%]	Activity [13] [%]	Activity (Mus musculus [14]) [%]	Activity (Mus musculus [15]) [%]
Cc1cc(O)c(-c2csc(N3C(=O)CSC3c3ccc(Cl)cc3)n2)c(=O)o1 (stereo unspecified)	8.54	18.2 10^3 cells/mm3	3	20.83	49.73	2.76	52.2	44							
Cc1cc(O)c(-c2csc(N3C(=O)CSC3c3cccc([N+](=O)[O-])c3)n2)c(=O)o1 (stereo unspecified)	11.35	33.9 10^3 cells/mm3	4	-23.95	33.5	19.07	63.2	32							
Cc1cc(O)c(-c2csc(N3C(=O)CSC3c3ccc(O)cc3)n2)c(=O)o1 (stereo unspecified)	13.08	16.6 10^3 cells/mm3	4.8	34.37	61.78	5.63	34	61							
COc1cc(C2SCC(=O)N2c2nc(-c3c(O)cc(C)oc3=O)cs2)cc(OC)c1OC (stereo unspecified)	10.48	19.2 10^3 cells/mm3	2	-1.04	-1.047	17.78	58.2	39.4							
Cc1cc(O)c(-c2csc(NC(=O)CN3CCN(c4ccc(F)cc4)CC3)n2)c(=O)o1	11.96	17.6 10^3 cells/mm3	3	-39.58	48.32	17.29	66	31							
Cc1cc(O)c(-c2csc(NC(=O)CN3CCN(C(=O)c4ccco4)CC3)n2)c(=O)o1	13.21	48.6 10^3 cells/mm3	4.6	-12.5	46.59	6.28	34	62							
COc1ccccc1N1CCN(CC(=O)Nc2nc(-c3c(O)cc(C)oc3=O)cs2)CC1	12.52	15.7 10^3 cells/mm3	4.8	27.08	58.11	4.12	25	70							
Cc1cc(O)c(-c2csc(NC(=O)CN3CCN(C)CC3)n2)c(=O)o1	10.64	19.6 10^3 cells/mm3	1.4	-1.04	-1.007	5	63.2	35.4							
O=c1[nH]cc(F)c(=O)[nH]1 [FLUOROURACIL]									4.67	27.8	15.6	13.99	57.29	71	1.2
